# From ChEMBL document CHEMBL4177740, “Selective inhibition of β-N-acetylhexosaminidases by thioglycosyl-naphthalimide hybrid molecules” (Bioorg Med Chem, 2018)
# Columns and labels:
# [1] = target: T1, Protein O-GlcNAcase (Homo sapiens) (UniProt O60502); assay: Inhibition of recombinant human OGA expressed in Escherichia coli BL21(DE3) at 100 uM using 4-MU-GlcNAc as substrate measured after 30 mins by fluorescence assay relative to control
# T1 sequence (whole entry): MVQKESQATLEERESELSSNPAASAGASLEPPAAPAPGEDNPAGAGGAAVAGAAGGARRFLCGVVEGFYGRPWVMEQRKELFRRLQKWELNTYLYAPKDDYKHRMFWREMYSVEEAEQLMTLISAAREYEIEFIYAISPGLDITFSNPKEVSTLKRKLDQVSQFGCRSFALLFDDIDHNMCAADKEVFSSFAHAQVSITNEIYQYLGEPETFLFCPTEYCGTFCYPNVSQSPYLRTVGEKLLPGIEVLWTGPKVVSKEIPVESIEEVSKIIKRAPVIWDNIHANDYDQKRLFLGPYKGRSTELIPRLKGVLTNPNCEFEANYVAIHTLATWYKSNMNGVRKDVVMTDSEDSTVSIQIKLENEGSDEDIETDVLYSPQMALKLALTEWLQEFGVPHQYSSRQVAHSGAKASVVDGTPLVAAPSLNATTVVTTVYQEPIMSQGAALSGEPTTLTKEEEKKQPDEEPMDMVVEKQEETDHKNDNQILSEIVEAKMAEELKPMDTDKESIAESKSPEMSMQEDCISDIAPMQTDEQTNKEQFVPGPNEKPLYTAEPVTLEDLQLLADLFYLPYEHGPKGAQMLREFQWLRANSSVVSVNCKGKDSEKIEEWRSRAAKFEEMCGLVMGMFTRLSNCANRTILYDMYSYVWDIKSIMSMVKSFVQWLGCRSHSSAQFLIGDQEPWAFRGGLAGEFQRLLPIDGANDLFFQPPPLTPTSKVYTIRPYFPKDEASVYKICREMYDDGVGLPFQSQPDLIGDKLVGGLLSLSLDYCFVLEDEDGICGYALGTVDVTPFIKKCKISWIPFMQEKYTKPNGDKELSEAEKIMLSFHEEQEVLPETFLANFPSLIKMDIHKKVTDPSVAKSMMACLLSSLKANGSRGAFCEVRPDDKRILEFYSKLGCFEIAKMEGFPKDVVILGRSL
# [2] = target: T2, Chitooligosaccharidolytic beta-N-acetylglucosaminidase (Ostrinia furnacalis) (UniProt Q06GJ0); assay: Inhibition of Ostrinia furnacalis Hex1 expressed in Pichia pastoris at 100 uM using 4-MU-GlcNAc as substrate measured after 30 mins by fluorescence assay relative to control
# T2 sequence (whole entry): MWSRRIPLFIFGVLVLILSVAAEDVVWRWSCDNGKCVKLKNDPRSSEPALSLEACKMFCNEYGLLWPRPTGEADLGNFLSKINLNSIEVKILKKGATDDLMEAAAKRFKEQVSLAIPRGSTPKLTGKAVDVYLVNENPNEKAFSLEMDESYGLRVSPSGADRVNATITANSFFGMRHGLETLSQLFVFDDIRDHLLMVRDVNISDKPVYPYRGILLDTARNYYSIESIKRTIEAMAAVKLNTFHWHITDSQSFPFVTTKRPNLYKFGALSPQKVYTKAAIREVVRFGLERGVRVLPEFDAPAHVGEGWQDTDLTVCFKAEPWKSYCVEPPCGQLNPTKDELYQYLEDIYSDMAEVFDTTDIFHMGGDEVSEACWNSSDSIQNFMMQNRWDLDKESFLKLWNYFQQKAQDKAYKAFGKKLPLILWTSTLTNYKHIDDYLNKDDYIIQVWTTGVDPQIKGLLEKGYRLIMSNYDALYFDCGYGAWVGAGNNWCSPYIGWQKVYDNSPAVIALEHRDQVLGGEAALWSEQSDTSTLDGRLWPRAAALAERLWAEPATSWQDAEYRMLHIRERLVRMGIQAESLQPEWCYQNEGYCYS
# [3] = target: T3, Chitooligosaccharidolytic beta-N-acetylglucosaminidase (Ostrinia furnacalis, UniProt Q06GJ0); assay: Inhibition of Ostrinia furnacalis Hex1 expressed in Pichia pastoris using varying levels of 4-MU-GlcNAc as substrate measured after 30 mins by fluorescence assay
# T3 sequence (Q06GJ0 whole entry): T2 sequence (whole entry)
# [4] = target: T2, Chitooligosaccharidolytic beta-N-acetylglucosaminidase (Ostrinia furnacalis); assay: Inhibition of Ostrinia furnacalis Hex1 expressed in Pichia pastoris at 200 uM using varying levels of 4-MU-GlcNAc as substrate measured after 30 mins by fluorescence assay relative to control
# [5] = target: T1, Protein O-GlcNAcase (Homo sapiens); assay: Inhibition of recombinant human OGA expressed in Escherichia coli BL21(DE3) at 200 uM using 4-MU-GlcNAc as substrate measured after 30 mins by fluorescence assay relative to control
# [6] = target: T4, Protein O-GlcNAcase (Homo sapiens, UniProt O60502); assay: Inhibition of recombinant human OGA expressed in Escherichia coli BL21(DE3) using varying levels of 4-MU-GlcNAc as substrate measured after 30 mins by fluorescence assay
# T4 sequence (O60502 whole entry): T1 sequence (whole entry)
SMILES,inhibition [1] [%],inhibition [2] [%],Ki [3] [µM],inhibition [4] [%],inhibition [5] [%],Ki [6] [µM]
CC(=O)N[C@@H]1[C@@H](O)[C@H](O)[C@@H](CO)O[C@H]1SCn1cc(CN2C(=O)c3cccc4cccc(c34)C2=O)nn1,18.5,17.9,,,,
CC(=O)N[C@H]1/C(=N/OC(=O)Nc2ccccc2)O[C@H](CO)[C@@H](O)[C@@H]1O,98.9,97.5,,,,
CC(=O)N[C@@H]1[C@@H](O)[C@H](O)[C@@H](CO)O[C@H]1SCC(=O)NN1C(=O)c2cccc3cccc(c23)C1=O,31.1,24.9,,,,
CC(=O)N[C@@H]1[C@@H](O)[C@H](O)[C@@H](CO)O[C@H]1SCCn1cc(CN2C(=O)c3cccc4cccc(c34)C2=O)nn1,27.8,84,,,,
CC(=O)N[C@@H]1[C@@H](O)[C@H](O)[C@@H](CO)O[C@H]1SCCCn1cc(CN2C(=O)c3cccc4cccc(c34)C2=O)nn1,22.7,81.6,,,,
CC(=O)N[C@@H]1[C@@H](O)[C@H](O)[C@@H](CO)O[C@H]1SCC(=O)NCCN1C(=O)c2cccc3cccc(c23)C1=O,38.6,18.4,,,,
CC(=O)N[C@@H]1[C@@H](O)[C@H](O)[C@@H](CO)O[C@H]1SCCC(=O)NCCN1C(=O)c2cccc3cccc(c23)C1=O,66.9,25.8,,,,
NN1C(=O)c2cccc3cccc(c23)C1=O,22.2,28.1,,,,
CC(=O)N[C@@H]1[C@@H](O)[C@H](O)[C@@H](CO)O[C@H]1SCCCCCn1cc(CN2C(=O)c3cccc4cccc(c34)C2=O)nn1,26,91.9,,,,
CC(=O)N[C@@H]1[C@@H](O)[C@H](O)[C@@H](CO)O[C@H]1SCC(=O)NCCCN1C(=O)c2cccc3cccc(c23)C1=O,97.6,29.2,> 200,< 50,,
CC(=O)N[C@@H]1[C@@H](O)[C@H](O)[C@@H](CO)O[C@H]1S,12,0,,,,
CC(=O)N[C@@H]1[C@@H](O)[C@H](O)[C@@H](CO)O[C@H]1SCCCCn1cc(CN2C(=O)c3cccc4cccc(c34)C2=O)nn1,25.1,89.9,,,,
CC(=O)N[C@@H]1[C@@H](O)[C@H](O)[C@@H](CO)O[C@H]1SCCC(=O)NCCCCN1C(=O)c2cccc3cccc(c23)C1=O,34.3,26.9,,,,
CC(=O)N[C@@H]1[C@@H](O)[C@H](O)[C@@H](CO)O[C@H]1SCC(=O)NCCCCN1C(=O)c2cccc3cccc(c23)C1=O,50,29.1,,,,
CC(=O)N[C@@H]1[C@@H](O)[C@H](O)[C@@H](CO)O[C@H]1SCCC(=O)NCCCN1C(=O)c2cccc3cccc(c23)C1=O,59.4,25.3,,,,
CC(=O)N[C@@H]1[C@@H](O)[C@H](O)[C@@H](CO)O[C@H]1SCCCCCCn1cc(CN2C(=O)c3cccc4cccc(c34)C2=O)nn1,25.7,93.2,21.8,,< 50,> 200
